Assay results: patent US9132126B2, “Phenyl-isoxazole derivatives and preparation process thereof” (priority 2011, dated 2015)
Values after ≈ are worked out from the molar mass of the structure shown. Values joined by “and” are separate entries in the source; they are usually repeats but may differ in a detail not shown here. Equal values may be shown once. Read-outs that look alike come from different tables or passages of the source.

How the values were obtained:
[1] = tested on: influenza virus (K09) expressing GFP; assay type: cell-based; parameters: key: ◯ = effective; X = ineffective
[2] = tested on: H1N1 influenza virus (solomon); test: microbe, parasite or virus in culture; assay type: cell-based
[3] = Acute toxicity test through oral administration in a rat; assay type: in vivo; conditions: male SD-Rat, single oral administration, 14 days observation; for LD50 at 14 days: Sprague-Dawley (SD), in vivo
Experimental: The acute toxicity of the inventive compound was determined through oral administration in a rat. Since the compound is expected to be orally administered in a clinical situation, an oral administration route was selected. A male rat aged 6 weeks (SD-Rat, 220±30 g) was subjected to quarantine, and acclimated for 1 week under a condition of lighting of 12 hours (08:00˜20:00), and luminance of 150-300 Lux at 22±3° C. at a relative humidity of 50±20%, while being freely fed with feed and water. Each of a control group and an experimental group include 8 rats. The control group was orally administered with 0.5% HPMC, and the experimental group was orally administered with a material (different concentrations) suspended in 0.5% HPMC, by using a sonde in an amount in proportion to the measured weight of each individual.
The concentration of the drug administered to the experimental group was set as 2000 mg/kg (the highest concentration for a single dose administration in a non-clinical test), and 1000 mg/kg, and 500 mg/kg (with a common ratio). For 14 days from drug administration, clinical symptoms were observed while the weight change was measured. Test animals that died during the test were subjected to autopsy, and abnormalities of main organs (heart, liver, lung, spleen, kidney, and large intestine) were observed and recorded. On the last day of the test (on the 14th day from the administration), all individuals were subjected to autopsy, and the changes of the organs caused by a test material were observed and compared to those in the control group. In the control group, no rats had died, and abnormalities were not observed through autopsy.
Each group was orally administered in a concentration of 500 mg/kg, 1000 mg/kg, and 2000 mg/kg. For 14 days from the administration, according to the test method, clinical symptoms were observed. […] Also, in the groups administered in various amounts, no individuals died. […] Further, no abnormal responses were observed, and from the autopsy results, no peculiarities were observed.

[4] = tested on: novel influenza virus (B/Field); test: microbe, parasite or virus in culture; assay type: cell-based
[5] = tested on: novel influenza virus (K09); test: microbe, parasite or virus in culture; assay type: cell-based; conditions: for EC50: MDCK, 72 h, read-out: Plaque reduction (Experimental Example 2) EC50
[6] = tested on: cell (MDCK) infected with an influenza virus (K09); test: Cytotoxicity assay using MTT; assay type: cell-based; conditions: compound 24 hours
Experimental: (§1) In this experiment, a cell was infected with a virus, and then the virus was directly treated with a compound so as to determine if the virus-infected cell has toxicity. For this, a cell (MDCK) was infected with an influenza virus (K09) for 1 hour, and treated with the compound with different concentrations for 24 hours. Then, the cell was treated with a MTT reagent for 1 hour. After 1 hour, a formazan crystal produced by the MTT reagent was dissolved in DMSO, and the absorbance was measured by an ELISA reader so as to determine CC50.
(§2) measured by MTT assay. A maximum concentration of the compound, at which the number of cells is reduced to half or more compared to that of a control group

[7] = Cytotoxicity assay using MTT; assay type: cell-based; conditions: dog, MDCK cells infected with influenza virus (K09), MDCK cell infected with K09; compound 24 hours; read-out: MTT assay (Experimental Example 3) CC50
Experimental: as §1, §2

[8] = Influenza A virus, Solomon (H1N1), read-out: EC50

COc1ccccc1N1CCN(C(=O)c2c(-c3ccccc3C(F)(F)F)noc2C)CC1 [Example 4]
GFP reduction (Experimental Example 1) effect [1]: ◯ | SI value [2]: 6.25 to 12.5 | EC50 ([2]; Solomon (H1N1)): 12.5 µg/mL (≈ 28.1 µM) | LD50 [3]: 2,000< mg/kg | SI value [4]: 1.563> | EC50 ([4]; B/Field): 50< μg/ml | Plaque reduction (Experimental Example 2) EC50 [5]: 12.5 to 25 µg/mL | SI value K09 [5]: 3.125 to 12.5 | MTT assay (Experimental Example 3) CC50 [6]: 78.12 to 156.25 µg/mL and 78.125 to 156.25 µg/mL

Cc1onc(-c2cccc(F)c2)c1C(=O)N1CCN(c2ccc(Cl)c(Cl)c2)CC1 [Example 11, (4-(3,4-dichlorophenyl)piperazine-1-yl)(3-(3-fluorophenyl)-5-methylisoxazol-4-yl)methanone]
GFP reduction (Experimental Example 1) effect [1]: ◯ | EC50 [2, 8]: 0.087 to 0.199 µg/mL (≈ 0.2 to 0.458 µM) | SI value ([2]; Solomon (H1N1), CC50/EC50): 1442.211 to 7183.908 | LD50 at 14 days [3]: > 2000 mg/kg | SI value ([4]; B/Field, CC50/EC50): 67.529 to 147.058 | EC50 ([4]; unidentified influenza virus): 4.25 µg/mL (≈ 9.79 µM) | EC50 [5]: < 0.16 µg/mL | CC50 at 24 h [7]: 287 to 625 µg/mL (≈ 661 to 1440 µM)

COc1cccc(N2CCN(C(=O)c3c(-c4cccc(F)c4)noc3C)CC2)c1 [Example 12, (3-(3-fluorophenyl)-5-methylisoxazol-4-yl)(4-(3-methoxyphenyl)piperazine-1-yl)methanone]
GFP reduction (Experimental Example 1) effect [1]: ◯ | EC50 [2, 8]: 0.781 µg/mL (≈ 1.98 µM) | SI value ([2]; Solomon (H1N1), CC50/EC50): 100.032 to 200.064 | LD50 at 14 days [3]: > 2000 mg/kg | EC50 ([4]; unidentified influenza virus): > 50 µg/mL | SI value K09 ([5]; K09, CC50/EC50): 25 to 50 | EC50 [5]: 3.12 µg/mL (≈ 7.9 µM) | CC50 at 24 h [7]: 78.1 to 156 µg/mL (≈ 198 to 395 µM)

Cc1onc(-c2cccc(F)c2)c1C(=O)N1CCN(c2ccccc2O)CC1 [Example 16, (3-(3-fluorophenyl)-5-methylisoxazol-4-yl)(4-(2-hydroxyphenyl)piperazine-1-yl)methanone]
GFP reduction (Experimental Example 1) effect [1]: ◯ | EC50 [2, 8]: 0.097 to 0.195 µg/mL (≈ 0.254 to 0.511 µM) | SI value ([2]; Solomon (H1N1), CC50/EC50): 400.641 to 805.412 | LD50 at 14 days [3]: > 2000 mg/kg | SI value ([4]; B/Field, CC50/EC50): 3.125 | EC50 ([4]; unidentified influenza virus): 25 µg/mL (≈ 65.5 µM) | SI value K09 ([5]; K09, CC50/EC50): 200.321 | EC50 [5]: 0.39 µg/mL (≈ 1.02 µM) | CC50 at 24 h [7]: 78.1 µg/mL (≈ 205 µM) | MTT assay (Experimental Example 3) CC50 [6]: 78.125 µg/mL

Cc1onc(-c2ccccc2OC(F)(F)F)c1C(=O)N1CCN(c2ccc(Cl)c(Cl)c2)CC1 [Example 35, (4-(3,4-dichlorophenyl)piperazine-1-yl)(5-methyl-3-(2-(trifluoromethoxy)phenyl)isoxazol-4-yl)methanone]
GFP reduction (Experimental Example 1) effect [1]: ◯ | EC50 [2, 8]: 0.097 to 0.195 µg/mL (≈ 0.194 to 0.39 µM) | SI value ([2]; Solomon (H1N1), CC50/EC50): 1602.564 to 6443.298 | LD50 at 14 days [3]: > 2000 mg/kg | SI value ([4]; B/Field, CC50/EC50): 50 to 100 | EC50 ([4]; unidentified influenza virus): 6.25 µg/mL (≈ 12.5 µM) | EC50 [5]: 0.395 to 0.781 µg/mL (≈ 0.79 to 1.56 µM) | CC50 at 24 h [7]: 312 to 625 µg/mL (≈ 625 to 1250 µM)

COc1cccc(N2CCN(C(=O)c3c(-c4ccccc4OC(F)(F)F)noc3C)CC2)c1 [Example 36]
GFP reduction (Experimental Example 1) effect [1]: ◯ | SI value K09 ([5]; K09, CC50/EC50): 320< | Plaque reduction (Experimental Example 2) EC50 ([5]; K09, MDCK cell, 72 hours): 1.56 µg/mL | MTT assay (Experimental Example 3) CC50 [6]: 500< μg/ml

COc1cccc(N2CCN(C(=O)c3c(-c4ccccc4Cl)noc3N)CC2)c1 [Example 60, (5-amino-3-(2-chlorophenyl)isoxazol-4-yl)(4-(3-methoxyphenyl)piperazine-1-yl)methanone]
GFP reduction (Experimental Example 1) effect [1]: ◯ | EC50 [2, 8]: 0.053 to 0.094 µg/mL (≈ 0.128 to 0.228 µM) | LD50 at 14 days [3]: > 2000 mg/kg | SI value ([4]; B/Field, CC50/EC50): 80< | EC50 ([4]; unidentified influenza virus): 6.25 µg/mL (≈ 15.1 µM) | EC50 [5]: 0.195 µg/mL (≈ 0.473 µM) | CC50 at 24 h [7]: > 500 µg/mL

Nc1onc(-c2ccccc2OC(F)(F)F)c1C(=O)N1CCN(c2ccc(Cl)c(Cl)c2)CC1 [Example 83]
GFP reduction (Experimental Example 1) effect [1]: ◯ | LD50 [3]: 2,000< mg/kg | SI value K09 ([5]; K09, CC50/EC50): 100.2 to 291.75 | Plaque reduction (Experimental Example 2) EC50 ([5]; K09, MDCK cell, 72 hours): 0.65 to 1.5 µg/mL | MTT assay (Experimental Example 3) CC50 [6]: 150.3 to 189.64 µg/mL

COc1cccc(N2CCN(C(=O)c3c(-c4ccccc4C(F)(F)F)noc3N)CC2)c1 [Example 92]
GFP reduction (Experimental Example 1) effect [1]: ◯ | SI value K09 ([5]; K09, CC50/EC50): 0.32 to 1.59 | Plaque reduction (Experimental Example 2) EC50 ([5]; K09, MDCK cell, 72 hours): 21 to 45 µg/mL | MTT assay (Experimental Example 3) CC50 [6]: 14.62 to 33.52 µg/mL

Nc1onc(-c2ccc(OC(F)(F)F)cc2)c1C(=O)N1CCN(c2ccc(Cl)c(Cl)c2)CC1 [Example 99]
GFP reduction (Experimental Example 1) effect [1]: ◯ | SI value K09 ([5]; K09, CC50/EC50): 0.32 to 1.59 | Plaque reduction (Experimental Example 2) EC50 ([5]; K09, MDCK cell, 72 hours): 21 to 45 µg/mL | MTT assay (Experimental Example 3) CC50 [6]: 14.62 to 33.52 µg/mL

CCOC(=O)C1CCN(C(=O)c2c(-c3ccccc3OC(F)(F)F)noc2N)CC1 [Example 124]
GFP reduction (Experimental Example 1) effect [1]: ◯ | SI value [2]: 50 | EC50 ([2]; Solomon (H1N1)): 6.25 µg/mL (≈ 14.6 µM) | LD50 [3]: 2,000< mg/kg | SI value [4]: 6.25> | EC50 ([4]; B/Field): 50< μg/ml | Plaque reduction (Experimental Example 2) EC50 [5]: 3.125 to 6.25 µg/mL | SI value K09 [5]: 50 to 100 | MTT assay (Experimental Example 3) CC50 [6]: 312.5 µg/mL

CCOC(=O)C1=C[C@@H](OC(CC)CC)[C@H](NC(C)=O)[C@@H](N)C1 [Oseltamivir, reference compound]
GFP reduction (Experimental Example 1) effect [1]: X | EC50 [2, 8]: 3.12 to 6.25 µg/mL (≈ 10 to 20 µM) | SI value ([2]; Solomon (H1N1), CC50/EC50): 100 to 400 | LD50 at 14 days [3]: > 2000 mg/kg | SI value ([4]; B/Field, CC50/EC50): 200 to 100 | EC50 ([4]; unidentified influenza virus): 6.25 µg/mL (≈ 20 µM) | EC50 [5]: 0.391 µg/mL (≈ 1.25 µM) | CC50 at 24 h [7]: 625 to 1250 µg/mL (≈ 2000 to 4000 µM)
